What was measured:
[1] = Intrinsic dissolution rate (IDR), Wood's apparatus; format: physicochemical; details: 900 ml distilled water, 37° C., 50 rpm; approx. 200 mg compressed at 1.5 metric tons for 1 minute
Description: Intrinsic dissolution rate (IDR) measurements were performed using a Wood's apparatus. Samples were prepared by compressing an amount (approximately 200 mg) of sample at 1.5 metric tons for 1 minute. A dissolution medium consisting of 900 ml distilled water maintained at 37° C., and rotation speed of 50 rpm, was used for each experiment.

[2] = drug substance, as described in CHMP Assessment Report; cited from earlier work
[3] = drug substance, as described in CHMP Assessment Report; cited from earlier work; remark: listed apart in the source

SMILES | Intrinsic Dissolution Rate [1] [mg min^−1 cm^−2] | Biopharmaceutics Classification System (BCS) class [2] | aqueous solubility [2] | permeability [3]
CNC(=O)c1ccc(N2C(=S)N(c3cnc(C#N)c(C(F)(F)F)c3)C(=O)C23CCC3)cc1F [Apalutamide Amorphous Form] | 0.0085 |  |  | 
CNC(=O)c1ccc(N2C(=S)N(c3cnc(C#N)c(C(F)(F)F)c3)C(=O)C23CCC3)cc1F [apalutamide, (4-[7-(6-cyano-5-trifluoromethylpyridin-3-yl)-8-oxo-6-thioxo-5,7-diazaspiro[3.4]oct-5-yl]-2-fluoro-N-methylbenzamide)] |  | Class II | low, pH-independent | high
CNC(=O)c1ccc(N2C(=S)N(c3cnc(C#N)c(C(F)(F)F)c3)C(=O)C23CCC3)cc1F [Apalutamide Form B] | 0.0065 |  |  | 
